The text below walks through data of patent US20100166701A1, “METHOD FOR TREATING RENAL CELL CARCINOMA USING GLYCOGENOLYSIS INHIBITORS” (priority 2008, published 2010).

“Also recorded” adds a separate entry of the source. Like-named read-outs stand apart in the source and are kept apart here.

The subject of one data set is prostate cancer cells. The conditions noted are these: cited from earlier work.
The test system of the next data set is pancreatic tumor cells. The conditions noted are these: cited from earlier work.
The next data set concerns human Caki-2 RCC cells. Briefly: Induction of glycogenosis in Caki-2 RCC cells by activators of the hypoxia pathway. In kind it is cell-based. As for the experimental part: To test this hypothesis it was first necessary to establish an in vitro model of glycogenosis in a relevant clear cell renal cell carcinoma (ccRCC) cell type (CAKI-2 cells). It was first necessary to induce levels of glycogenosis similar to those measured in human disease. We obtained human RCC biopsies (FIG. 4 B) and compared glycogen levels with neighboring grossly uninvolved tissue (GU). […] We treated human Caki-2 RCC cells with known activators of hypoxia pathway in 20 mM glucose for 24 h: 100 μM cobalt chloride, 100 μM desferrioxamine (DFO), and hypoxia (pO2=1%) (FIG. 4 A).
We therefore repeated the induction of glycogenosis with DFO after prior treatment with HIF-1α RNAi (FIG. 5).

Data set [1] relates to CAKI-2 cells. Briefly: Cell death by propidium iodide inclusion (FACScan) under nutrient deprivation and azide. In kind it is cell-based, human. As for the experimental part:
The invention was tested in an in vitro model. CAKI-2 cells were pre-incubated in the presence of 300 μM desferrioximine (DFO, solid line) in RPMI1640 and 10% fetal calf serum to induce the accumulation of glycogen. After 16 hours the media was changed to DMEM with 0 mM glucose and 0 mM pyruvate for 4 hours, to mimic the absence of nutrient as present in the interior of a tumor or resulting from treatment with anti-angiogenic inhibitors, increasing concentrations of sodium azide (0 to 100 mM) to mimic the absence of oxygen, and the presence or absence of 60 μM CP-316819 to specifically target glycogenolysis (CP, closed circles). Cells were then trypsinized, collected, treated with 0.1 mg propidium iodide in KRBH buffer (25 mM HEPES 7.4, 120 mM NaCl, 4.6 mM KCl, 1.9 mM CaCl2, 1 mM MgSO4, and 1.2 mM KH2PO4), and analyzed for cell death by measuring inclusion of propidium iodide on a FACScan instrument ([…]).

The next data set deals with HIF protein. In words: Immunoblot of HIF protein levels in Caki-2 cells. In kind it is cell-based, human. The conditions noted are these: 100 μM, 20 mM glucose, 24 h. The procedure: To test this hypothesis it was first necessary to establish an in vitro model of glycogenosis in a relevant clear cell renal cell carcinoma (ccRCC) cell type (CAKI-2 cells). It was first necessary to induce levels of glycogenosis similar to those measured in human disease. We obtained human RCC biopsies (FIG. 4 B) and compared glycogen levels with neighboring grossly uninvolved tissue (GU). There was a […] induction of glycogen levels in human RCC (1±1 to 230±40 μg glucose/mg protein, p<0.01). We treated human Caki-2 RCC cells with known activators of hypoxia pathway in 20 mM glucose for 24 h: 100 μM cobalt chloride, 100 μM desferrioxamine (DFO), and hypoxia (pO2=1%) (FIG. 4 A).
(Immunoblotting shows a protein as a band on a membrane.)

The conditions of data set [2]: cited from earlier work.
For data set [3], the system named is RCC. The conditions noted are these: clinical trials; cited from earlier work.
The subject of data set [4] is CAKI-2 cells. In words: Glycogen mobilization in glucose-starved CAKI-2 cells. It counts as cell-based, human. The source says:
Caki-2 cells loose glycogen when starved of glucose in the media and not when there was abundant glucose (p<0.05). As proposed in the invention glycogen reserves are responsive to the metabolic status of the carcinoma cell and are mobilized in response to metabolic stress.
We also tested whether glycogen mobilization could be inhibited pharmacologically (FIG. 6B). We therefore treated glucose-starved CAKI-2 cells with two types of glycogenolysis inhibitor: CP-316819 (▪), which inhibits glycogen phosphorylase and NN-DNJ (♦), which inhibits lysosomal glycogen breakdown. […] After 4 h glycogen loss was restricted to 25% and roughly ⅓^rd was still present after 20 h in glucose free media (p<0.05).

The test system of data set [5] is RCC. The conditions noted are these: high dose, cited from earlier work.
The mark [6] stands for this setting: 100 μM, 20 mM glucose, 24 h, Caki-2 cells.

`CN(C)C(=O)[C@H](O)[C@H](Cc1ccccc1)NC(=O)c1cc2cc(Cl)ccc2[nH]1` [CP-91149]: in the data set on prostate cancer cells, the glycogen content entry was “two-fold increase” and the “reduction in cell number” value is listed as 50%.
`O=C(N[C@@H](Cc1ccc(F)cc1)C(=O)N1CCC(O)CC1)c1cc2cc(Cl)ccc2[nH]1` [CP-320626]: in the data set on pancreatic tumor cells (concentrations below those required for anti-proliferative and pro-apoptotic effects), the “flux into fatty acid synthesis and the pentose phosphate cycle” value is listed as “inhibited”. Also, in the data set on pancreatic tumor cells (pancreatic tumor cells), the “flux of glucose through the TCA cycle” value is “decreased”.
Regarding `CC(=O)N(O)CCCCCNC(=O)CCC(=O)N(O)CCCCCNC(=O)CCC(=O)N(O)CCCCCN` [DFO, desferrioxamine], the “glycogen level (glycogenosis)” value in the data set with human Caki-2 RCC cells (setting [6]) worked out at 320±90 μg glucose/mg protein. The “increase of glycogen levels” value in the data set with human Caki-2 RCC cells (CAKI-2 cells, DFO treatment) amounted to 9 fold. In addition, the “resistance to cell death” value in the data set with CAKI-2 cells [1] (pre-incubated 300 μM DFO 16 hours, 100 mM azide, 0 mM glucose 4 hours) is recorded as “significantly resistant to cell death”. Further, in the data set with HIF protein, the “stabilization of HIF protein levels” value is given as “able to stabilize HIF protein levels”.
Consider `CCCCCCCCCN1C[C@H](O)[C@@H](O)[C@H](O)[C@H]1CO` [NN-DNJ, N-(n-Nonyl)deoxynojirimycin], for which the “duration of sustained increases in hepatic glycogen levels” value in data set [2] (mice) is given as “at least 120 days”. In [2] (mouse, in vivo), the body weight result is recorded as “did not lose body weight” and the hypoglycemia result was “did not suffer hypoglycemia below normal fasting levels”.
Consider `[Cl][Co][Cl]` [cobalt chloride], for which the “induction of glycogenosis to a level equivalent to human RCC biopsies” value in the data set with human Caki-2 RCC cells (setting [6]) is “Only DFO, the iron chelator, was able to induce glycogenosis”. Besides, the “stabilization of HIF protein levels” value with HIF protein is on record as “only DFO was able to stabilize HIF protein levels”.
With `CCN(CC)CCNC(=O)c1c(C)[nH]c(/C=C2\C(=O)Nc3ccc(F)cc32)c1C` [sunitinib malate], in the data set with RCC [3], the “median increase in survival” value is 16.4 months; the response was 24% to 40%; the “stable disease, additional patients” value is given as 27% to 46%.
With CP-316819, in the data set with CAKI-2 cells [4] (after 4 h, glucose-starved CAKI-2 cells), the glycogen loss stood at 25%. Further, the “glycogen still present (fraction)” value in the data set with CAKI-2 cells [4] (after 20 h in glucose free media) is “roughly ⅓”. The “reducing glycogen breakdown (comparison of the two inhibitors)” value in the data set with CAKI-2 cells [4] (glucose-starved CAKI-2 cells) was “most effective at reducing glycogen breakdown”. The “protection of glycogen-loaded cells against cell death” value with CAKI-2 cells [1] (60 μM CP-316819, DFO-pretreated cells, 0 mM glucose, 0 mM pyruvate, 4 hours, sodium azide) is reported as “this protection is lost; also recorded: removed that protection”.
For “bevacizumab: humanized monoclonal antibody, VEGF receptor antagonist”, in the data set on RCC [5] (after three years), the survival entry is given as “no difference in survival”. Also, the response in the data set on RCC [5] is 30%.
Take ferric ammonium citrate: in the data set with human Caki-2 RCC cells (incubated in 150 μM ferric ammonium citrate), the DFO-dependent glycogen accumulation entry is reported as “did not occur”.
